23 compounds from PubChem BioAssay AID192 (DTP/NCI, 2004) can be followed below.

SMILES strings stand for the structures. Several values for one entry are separate records, joined by “and”; a condition that tells them apart may be missing. Equal entries are not always repeated. Toxic doses and inconclusive results are not listed.

This test relates to BDF1 mice, B16 melanoma ip, median survival T/C. As to the kind of experiment: NCI In Vivo Anticancer Drug Screen. Data for tumor model B16 Melanoma (intraperitoneal) in B6D2F1 (BDF1) mice. To be noted: endpoint: median survival time, higher = longer survival. In outline:
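Tumor-bearing mice received test compound or vehicle. Survival or tumor size was then measured in both groups. The treated-group figure was divided by the control-group figure.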

[1] abbreviates: dose: 12.5 mg/kg/injection, schedule: Q01DX009 (ip), vehicle: saline with Tween-80.
[2] abbreviates: dose: 25.0 mg/kg/injection, schedule: Q01DX009 (ip), vehicle: saline with Tween-80.
The mark [3] stands for this setting: dose: 25.0 mg/kg/injection, schedule: Q01DX009 (ip), vehicle: saline.
Setting [4] is: dose: 50.0 mg/kg/injection, schedule: Q01DX009 (ip), vehicle: saline.
Where [5] appears, read: dose: 6.25 mg/kg/injection, schedule: Q01DX009 (ip), vehicle: saline with Tween-80.
The mark [6] stands for this setting: dose: 50.0 mg/kg/injection, schedule: Q01DX009 (ip), vehicle: saline with Tween-80.
Setting [7] is: dose: 100.0 mg/kg/injection, schedule: Q01DX009 (ip), vehicle: saline with Tween-80.
The mark [8] stands for this setting: dose: 50.0 mg/kg/injection, schedule: Q04DX003 (ip), vehicle: saline with Tween-80.
Where [9] appears, read: dose: 100.0 mg/kg/injection, schedule: Q04DX003 (ip), vehicle: saline with Tween-80.
Where [10] appears, read: dose: 12.5 mg/kg/injection, schedule: Q01DX009 (ip), vehicle: Klucel (hydroxypropylcellulose) (HPC).
Where [11] appears, read: dose: 25.0 mg/kg/injection, schedule: Q01DX009 (ip), vehicle: Klucel (hydroxypropylcellulose) (HPC).
The mark [12] stands for this setting: dose: 50.0 mg/kg/injection, schedule: Q01DX009 (ip), vehicle: Klucel (hydroxypropylcellulose) (HPC).
Where [13] appears, read: dose: 100.0 mg/kg/injection, schedule: Q01DX009 (ip), vehicle: Klucel (hydroxypropylcellulose) (HPC).
Setting [14] is: dose: 200.0 mg/kg/injection, schedule: Q01DX009 (ip), vehicle: Klucel (hydroxypropylcellulose) (HPC).
Where [15] appears, read: dose: 400.0 mg/kg/injection, schedule: Q01DX009 (ip), vehicle: Klucel (hydroxypropylcellulose) (HPC).

Take `CN=S(=O)(OCCCCCOS(=O)(=NC)c1ccccc1)c1ccccc1` (stereo not given): the T/C is, setting by setting: (dose: 1.5 mg/kg/injection, schedule: Q01DX009 (ip), vehicle: saline with Tween-80) 111 % of control; (dose: 3.0 mg/kg/injection, schedule: Q01DX009 (ip), vehicle: saline with Tween-80) 104 % of control; (dose: 6.0 mg/kg/injection, schedule: Q01DX009 (ip), vehicle: saline with Tween-80) 122 % of control; under setting [1], 94 % of control; (dose: 24.0 mg/kg/injection, schedule: Q01DX009 (ip), vehicle: saline with Tween-80) 169 % of control; under setting [2], 122 % of control.

In the case of `COCCCN1CCN(c2ccccc2OC)CC1`, the T/C runs as follows: under setting [3], 101 % of control; under setting [4], 92 % of control.

With `COc1ccc(N=C=S)cc1N=C=S`, the T/C under setting [5] is 102 % of control; the T/C (dose: 6.25 mg/kg/injection, schedule: Q04DX003 (ip), vehicle: saline with Tween-80) is 105 % of control; the T/C under setting [1] is 92 % of control; the T/C (dose: 12.5 mg/kg/injection, schedule: Q04DX003 (ip), vehicle: saline with Tween-80) was 115 % of control; the T/C under setting [2] is 100 % of control; the T/C (dose: 25.0 mg/kg/injection, schedule: Q04DX003 (ip), vehicle: saline with Tween-80) was 113 % of control.

Regarding `COc1ccc([Se][Se]c2ccc(OC)cc2NC(C)=O)c(NC(C)=O)c1`, the T/C was 102 % of control under setting [6]; 92 % of control under setting [7]; 100 % of control (dose: 200.0 mg/kg/injection, schedule: Q01DX009 (ip), vehicle: saline with Tween-80).

For the compound `NC(=O)C(O)C(O)C(O)C(O)C(N)=O` (stereo not given), the T/C reads like this: (dose: 100.0 mg/kg/injection, schedule: Q01DX009 (ip), vehicle: saline) 106 % of control; (dose: 200.0 mg/kg/injection, schedule: Q01DX009 (ip), vehicle: saline) 100 % of control.

As to `O=C(Nc1ccccc1)OCC(CN1CCCCC1)OC(=O)Nc1ccccc1` (stereo not given), the T/C is 104 % of control under setting [8]; 102 % of control under setting [9]; 100 % of control (dose: 200.0 mg/kg/injection, schedule: Q04DX003 (ip), vehicle: saline with Tween-80).

On to `O=C(NC(CSCc1ccccc1)C(=O)Oc1ccc([N+](=O)[O-])cc1)OCc1ccccc1` (stereo not given), for which the T/C (dose: 25.0 mg/kg/injection, schedule: Q01DX009 (ip), vehicle: gum acacia) is 97 % of control.

Consider `O=c1ccc2nc3ccccc3sc-2c1`, for which the T/C is, setting by setting: under setting [1], 93 % of control; under setting [2], 86 % of control; under setting [6], 95 % of control; under setting [7], 91 % of control.

Consider `O=C(O)CCCC1CCCCC1.[Cu+2]`, for which the T/C was 100 % of control under setting [5] and 97 % of control under setting [1].

With `O=c1oc2c3ccccc3c3ccccc3c2o1`, the T/C (dose: 1.56 mg/kg/injection, schedule: Q01DX009 (ip), vehicle: Klucel (hydroxypropylcellulose) (HPC)) was 100 % of control; the T/C (dose: 3.12 mg/kg/injection, schedule: Q01DX009 (ip), vehicle: Klucel (hydroxypropylcellulose) (HPC)) is 96 % of control; the T/C (dose: 6.25 mg/kg/injection, schedule: Q01DX009 (ip), vehicle: Klucel (hydroxypropylcellulose) (HPC)) is 113 % of control; the T/C under setting [10] is 106 % of control; the T/C under setting [11] was 86 % of control and 96 % of control.

In the case of `CCCCNC(C)[C@]1(O)Cc2c(O)c3c(c(O)c2[C@@H](OC2CC(N)C(O)C(C)O2)C1)C(=O)c1c(OC)cccc1C3=O` (stereo not given in full), the T/C runs as follows: (dose: 4.7 mg/kg/injection, schedule: Q01DX001 (ip), vehicle: water) 185 % of control and 198 % of control; (dose: 9.4 mg/kg/injection, schedule: Q01DX001 (ip), vehicle: water) 185 % of control and 215 % of control and 270 % of control; (dose: 18.8 mg/kg/injection, schedule: Q01DX001 (ip), vehicle: water) 197 % of control and 222 % of control and 263 % of control; (dose: 37.5 mg/kg/injection, schedule: Q01DX001 (ip), vehicle: water) 106 % of control.

Regarding `COc1cccc2c1C(=O)c1c(O)c3c(c(O)c1C2=O)C[C@@](O)(C(C)=O)C[C@@H]3OC1CC(NC(C)=O)C(O)C(C)O1` (stereo not given in full), the T/C runs as follows: (dose: 6.25 mg/kg/injection, schedule: Q01DX009 (ip), vehicle: saline) 169 % of control; (dose: 12.5 mg/kg/injection, schedule: Q01DX009 (ip), vehicle: saline) 198 % of control; under setting [3], 308 % of control; under setting [4], 227 % of control.

For the compound `NC(C(=O)O)c1ccc(CBr)cc1` (stereo not given), the T/C was 152 % of control (dose: 12.5 mg/kg/injection, schedule: Q01DX009 (ip), vehicle: acid diluted with saline); 157 % of control (dose: 25.0 mg/kg/injection, schedule: Q01DX009 (ip), vehicle: acid diluted with saline); 152 % of control (dose: 100.0 mg/kg/injection, schedule: Q01DX009 (ip), vehicle: acid diluted with saline); 157 % of control (dose: 200.0 mg/kg/injection, schedule: Q01DX009 (ip), vehicle: acid diluted with saline).

Consider `Nc1ccccc1SC1CC(=O)N(c2ccccc2)C1=O` (stereo not given), for which the T/C is 97 % of control under setting [11]; 91 % of control under setting [12]; 90 % of control and 92 % of control under setting [13].

Take `CC1CN1c1nc(N2CC2C)nc(N2CC2C)n1` (stereo not given): the T/C is 105 % of control (dose: 0.25 mg/kg/injection, schedule: Q01DX009 (ip), vehicle: saline); 97 % of control (dose: 0.5 mg/kg/injection, schedule: Q01DX009 (ip), vehicle: saline); 111 % of control (dose: 1.0 mg/kg/injection, schedule: Q01DX009 (ip), vehicle: saline with Tween-80); 98 % of control (dose: 1.0 mg/kg/injection, schedule: Q01DX009 (ip), vehicle: saline); 116 % of control (dose: 2.0 mg/kg/injection, schedule: Q01DX009 (ip), vehicle: saline with Tween-80); 94 % of control (dose: 2.0 mg/kg/injection, schedule: Q01DX009 (ip), vehicle: saline). Moreover, the T/C (dose: 2.0 mg/kg/injection, schedule: Q04DX003 (ip), vehicle: saline) is 105 % of control; the T/C (dose: 4.0 mg/kg/injection, schedule: Q01DX009 (ip), vehicle: saline with Tween-80) is 105 % of control; the T/C (dose: 4.0 mg/kg/injection, schedule: Q04DX003 (ip), vehicle: saline) was 94 % of control; the T/C (dose: 8.0 mg/kg/injection, schedule: Q01DX009 (ip), vehicle: saline with Tween-80) was 90 % of control; the T/C (dose: 8.0 mg/kg/injection, schedule: Q04DX003 (ip), vehicle: saline) is 105 % of control.

Regarding `O=C1c2ccccc2C(=O)N1CC[P+](c1ccccc1)(c1ccccc1)c1ccccc1`, the T/C reads like this: (dose: 1.56 mg/kg/injection, schedule: Q01DX009 (ip), vehicle: water) 98 % of control; (dose: 3.13 mg/kg/injection, schedule: Q01DX009 (ip), vehicle: water) 100 % of control; (dose: 6.25 mg/kg/injection, schedule: Q01DX009 (ip), vehicle: water) 109 % of control; (dose: 12.5 mg/kg/injection, schedule: Q01DX009 (ip), vehicle: water) 107 % of control.

Take `O=[N+]([O-])c1cc(F)cc([N+](=O)[O-])c1O`: the T/C is 124 % of control under setting [10], 103 % of control under setting [11] and 96 % of control under setting [12].

`C1=CC2C=CC12` (stereo not given): the T/C under setting [8] was 91 % of control and the T/C under setting [9] is 89 % of control.

On to `Cc1cc(N(C)C)cc(C)c1N=Nc1cc[n+]([O-])cc1`, for which the T/C (dose: 3.13 mg/kg/injection, schedule: Q01DX009 (ip), vehicle: saline with Tween-80) was 98 % of control; the T/C under setting [5] is 100 % of control; the T/C under setting [1] was 105 % of control; the T/C under setting [2] was 108 % of control; the T/C under setting [6] is 95 % of control and 113 % of control.

On to `O=C1C(CCSc2ccccc2)C(=O)N(c2ccccc2)C1c1ccccc1` (stereo not given), for which the T/C is 116 % of control under setting [13], 113 % of control under setting [14] and 110 % of control under setting [15].

As for `O=C(Cl)COc1cccc2ccccc12`, the T/C reads like this: under setting [13], 103 % of control; under setting [14], 110 % of control; under setting [15], 106 % of control.

Turning to `COc1ccc(C2NC(=O)c3ccccc3N2)c(OC)c1OC` (stereo not given), the T/C was 103 % of control under setting [13], 112 % of control under setting [14] and 109 % of control under setting [15].

With `COc1cc2nc3cc([N+](=O)[O-])ccc3c(Cl)c2cc1OC`, the T/C was 103 % of control under setting [12] and 96 % of control under setting [13].
